Measured values published in patent US6756054B1, “Polycationic sterol derivatives as transfection agents” (IC-VEC Limited, priority 1996, dated 2004).

Legend:
CFT1 cells = test: in vitro transfection of CFT1 cells with pCF1-βGal plasmid by cationic liposomes (DC-Chol analogue/DOPE), β-galactosidase expression; type: cell-based; conditions: for rank of DC-Chol analogues for in vitro gene delivery: most effective triamine, tetramine and pentamine; for gene delivery efficiency in vitro over and above DC-Chol/DOPE liposomes: pCF1-βGal plasmid, liposomes with DOPE, relative to DC-Chol/DOPE liposomes formulated in a similar way (FIG. 24)
Method: FIG. 23 is an example of in vitro optimisation of pCF1-βGal plasmid transfection of CFT1 cells in vitro using complexes of pCF1-βGal and cationic liposomes formulated from DC-Chol analogue 8f′ and DOPE 2 (1:1) molar ratio. CFT1 cells were transfected with an array of different cationic liposome and plasmid ratios in a 96-well plate. The extent of transfection in each well was determined after 2 days by measuring the levels of β-galactosidase expression. Plasmid DNA concentration is expressed as the concentration of nucleotides assuming an average nucleotide FWt of 330. Cationic liposome concentration is expressed in terms of the concentration of the constituent DC-Chol analogue 8f′ alone.
FIG. 24 presents rank order of DC-Chol polyamine analogues transfecting CFT1 cells in vitro with the pCF1-βGal plasmid. Gene delivery activity is expressed as a proportion of the activity measured with standard liposomes containing DC-Chol 1 and DOPE 2. The data shown are the averages of four separate experiments, each performed in triplicate.
The ratios in curved brackets refer to the DC-Chol analogue:DOPE 2 molar ratio used to formulate the liposomes. The numbers in square brackets refer to compound serial numbers. Where appropiate DC-Chol analogue name abbreviations are also included (see experimental).
(§1) The ability of cationic liposomes containing the different DC-Chol polyamine analogues to mediate gene delivery was analysed both in vitro and in vivo. Cationic liposomes were formulated by hydrating a dried lipid film, containing DC-Cholanalogue and DOPE 2 in an appropriate molar ratio of either 1:0, 1:1, 1:2 or 2:1 respectively. and vortex mixing.^[32] Cationic liposome/plasmid DNA complexes were then prepared by adding appropriately diluted cationic liposome suspensions into equal volumes of aqueous plasmid DNA solutions at 30° C. and allowing the mixture to equilibrate to ambient temperature over 15 min.^[32] In vitro studies were then performed with immortalised cystic fibrosis airway epithelial (CFT1) cells followed by in vivo studies in which cationic liposome/plasmid DNA complexes were instilled intranasally into the lungs of female BALB/c mice.^[32] Typically, cationic liposome gene delivery was first optimised in vitro so as to establish the best molar ratio of cationic liposome to plasmid DNA (DNA concentration was expressed as nucleotide concentration) as well as the best absolute quantities of both, as illustrated (FIG. 23). This optimised combination was then tested in vivo. The in vitro results are shown (FIG. 24). […] The analogues were 8a′, 8b′, 8e′, 8f′, 13a′ and 17b′, the first four being triamines, the fifth a tetramine and the sixth a pentamine. With one exception, 8f′, these polyamine analogues contain inter-nitrogen methylene group spacings not normally associated with the natural polyamines spermidine 18′ (see for example FIG. 29), spermine 19′ (see for example FIG. 29) and pentamine 20′ (see for example FIG. 29) upon which these structures are based. In vivo (FIG. 25), the best DC-Chol analogues were 13c′, 13f′ and especially 17a′. Both 17a′ and 13c′ also contain unnatural methylene group spacings.
For the in vitro and in vivo tests, a dried lipid film containing the given DC-Chol analogue and DOPE 2 (in either a 1:0, 1:1, 1:2 or 2:1 respective molar ratio), was hydrated for 10 min in sterile pyrogen-free water and then liposomes were produced by 2 min vortex mixing. The average diameter was between 200-400 nm.^[32] Cationic liposomes containing DC-Chol 1 and DOPE 2 were formulated in the same way described previously.^[24, 36]
Cationic liposome/plasmid DNA complexes were then prepared as follows.
Both cationic liposome suspensions and DNA (either pCF1-βGal plasmid expressing β-galactosidase or pCF1-CAT expressing chloramphenicol acetyl transferase)^[32] solutions were separately pre-incubated for 5 min at 30° C., before being diluted to the appropriate final concentrations and then combined. […]

[1] = system: lungs of female BALB/c mice; test: in vivo transfection of mouse lung with pCF1-CAT plasmid by intranasally instilled cationic liposome/DNA complexes, CAT activity in lung homogenates; conditions: for rank of DC-Chol analogues for in vivo gene delivery: female BALB/c mice lung, pCF1-CAT plasmid, optimal formulation, CAT activity after 2 days (FIG. 25)
Method: FIG. 25 presents the rank order of DC-Chol polyamine analogues transfecting the lungs of female BALB/c mice with the pCF1-CAT plasmid. Mice were instilled with a solution of the plasmid (4 mM nucleotide concentration) and the optimal quantity and ratio of cationic liposome, in a total volume of 100 μl. Gene delivery activity was determined as a function of chloramphenicol acetyl transferase activity in lung homogenates after 2 days.
Data points were from separate experiments with each optimal formulation tested in 4 BALB/c mice. The ratios in curved brackets refer to the DC-Chol analogue:DOPE 2 molar ratio. The numbers in square brackets refer to compound serial numbers. Where appropiate DC-Chol analogue name abbreviations are also included (see experimental).
as §1, with “spacings. […]” for “spacings.”

[2] = reported; cited from earlier work
[3] = mouse lung, pCF1-CAT plasmid (FIG. 25)

Compound | rank of DC-Chol analogues for in vitro gene delivery (CFT1 cells) | gene delivery efficiency in vitro over and above DC-Chol/DOPE liposomes (CFT1 cells) | rank of DC-Chol analogues for in vivo gene delivery [1] | also measured
CC(C)CCCC(C)C1CCC2C3CC=C4CC(OC(=O)NCCCNCCCN)CCC4(C)C3CCC12C (centres unmarked) [8e′, 4-aza-N′-cholesteryloxycarbonyl-1,7-heptanediamine] | most effective | significant improvements | – | –
CC(C)CCC[C@@H](C)[C@H]1CC[C@H]2[C@@H]3CC=C4C[C@@H](OC(=O)NCCNCCCNCCN)CC[C@]4(C)[C@H]3CC[C@]12C [13a′, N′-cholesteryloxy-carbonyl-3,7-diaza-1,9-nonanediamine] | most effective | significant improvements | – | –
CC(C)CCCC(C)C1CCC2C3CC=C4CC(OC(=O)NCCCNCCCCNCCCN)CCC4(C)C3CCC12C (centres unmarked) [13f′, N^1-cholesteryloxy-carbonyl-4,9-diaza-1,12-dodecanediamine] | – | – | best and most effective | –
CCCCCCCCCCCCOCC(C[N+](C)(C)CCCN)OCCCCCCCCCCCC.[Br-] (centres unmarked) [GAP-DLRIE, (B1)-N-(3-aminopropyl)-N,N-dimethyl-2,3-bis-(dodecyloxy)-1-propanaminium bromide] | – | – | – | in vivo efficacy relative to plasmid DNA alone [2]: about 100 fold
N^10-cholesteryloxycarbonyl-4,8,13-triaza-1,16-hexadecanediamine [17b′] | most effective | significant improvements | – | –
N^15-cholesteryloxycarbonyl-3,7,12-triaza-1,15-pentadecanediamine [17a′] | – | – | best and most effective | effectiveness in mouse lung relative to DC-Chol 1 [1, 3]: about 100 fold; effectiveness in mouse lung relative to plasmid DNA alone [1, 3]: approx 500 fold
